pIC50: −log10 of the molar value.
Assays:
Assay type in all cases: cell-based
[1] = test system: TNF-α release (THP1 cells); assay: Test A: Inhibition of TNF-α Release (LPS-stimulated THP1 cells, ELISA); details: Homo sapiens, THP-1, LPS-induced TNF-α release, 3 hours, 37° C., read-out: Test A IC50 (nMol)
Experimental: Test A: Inhibition of TNF-α Release
THP1 cells were cultivated in RPMI 1640 medium supplemented with antibiotics and 10% foetal calf serum, harvested by centrifugation and diluted to 5×10^5 cells/ml in the above medium supplemented with 20 mM HEPES buffer. Aliquots ([…]) of the cell suspension were plated out on 96 well culture plates and incubated for 0.5 hour at 37° C. prior to the addition of the test compounds. The latter were dissolved in dimethyl sulphoxide (DMSO) to a stock concentration of 1.2 mM which was diluted with phosphate buffered saline/10% DMSO solution to provide test compounds in final concentrations of 10^-9 to 10^-5 M, with each concentration being tested in duplicate. The cells were incubated with the test compounds for 0.5 hour at 37° C., LPS (bacterial lipopolysaccharide) was then added to a concentration of […] and incubation was continued for 3 hours at 37° C. in an atmosphere containing 5% CO2 and at 95% relative humidity. After centrifugation at 260 g for 10 minutes an aliquot of each supernatant was removed and the amount of TNF-a was estimated by ELISA (R & D Systems Europe Ltd., Abingdon, England). The concentration of test compound which brings about 50% inhibition of LPS-induced TNF-a release (IC50) was computed from the dose-response curve.

[2] = test system: TGF-α release (Normal human epidermal keratinocytes); assay: Test B: Inhibition of TGF-α Release (TPA-stimulated NHEK); details: 24 hours, 37° C., read-out: Test B IC50 (nMol)
Experimental: Test B: Inhibition of TGF-α Release
This test is an adaptation of the method described by R. J. Coffrey, R. Derynk, J. N. Wilcox, T. S. Bringman, A. S. Goustin, H. L. Moses and M. R. Pittelkow, Nature, (1987), 328, 816-820. Normal human epidermal keratinocytes (NHEK) (neonatal and adult) were supplied by Clonetics Corporation, San Diego, Calif., USA and at the third passage were plated out on 96 well culture plates at 2×10^3 to 10^4 cells per well and grown in a humidified incubator having a 5% CO2 atmosphere at 37° C. for 5 days in serum-free keratocyte growth medium (KGM; Clonetics Corporation). Test compounds were dissolved in DMSO and then diluted 10 times in keratinocyte basal medium (KBM; Clonetics Corporation). Serial dilutions of the test compounds were made in 10% DMSO in KBM to provide concentrations 12 times higher than the final assay concentration. The test compound dilutions (or vehicle only as controls) were added to the cells and incubation was then carried out at 37° C. for 0.5 hour. TGF-a release was then stimulated by the addition of 10 ng/ml TPA (phorbol 12-myristate 13-acetate). […]

[3] = test system: Normal human epidermal keratinocytes (NHEK); assay: Test C: Inhibition of Keratinocyte Proliferation (3H-thymidine incorporation); details: 3 days, read-out: Test C IC50 (nMol)
Experimental: Test C: Inhibition of Keratinocyte Proliferation
This test is an adaptation the methods described by T. Karashima, H. Hachisuka and Y. Sasai, J. Dermatol. Sci., (1996), 12, 246-254 and A. Olaniran, B. S. Baker, J. J. Garioch, A. V. Powles and L. Fry, Arch. Dermatol. Res., (1995), 287, 231-236. Normal human epidermal keratinocytes (NHEK) (neonatal and adult) were plated out on 96 well culture plates at 2×10^3 cells per well. Following attachment of the cells to the plate by incubation for 24 hours in a humidified incubator having a 5% CO2 atmosphere at 37° C. in serum-free KGM (see above), the medium was replaced with KBM (see above) for 4 days in order to arrest the growth of the cells. Test compounds were dissolved in DMSO and then diluted 10 times in KBM. Serial dilutions of the test compounds were made in 10% DMSO in KBM to provide concentrations 11 times higher than the final assay concentration. The cells were then returned to KGM and the test compound dilutions (or vehicle only for controls) were added immediately. After incubation for 3 days the cells were pulsed with […] ^3 H-thymidine, specific activity 5 Ci/mmol (Amersham International plc, Little Chalfont, Buckinghamshire, UK), for the last 16 hours. Cells were then detached using trypsin-EDTA and harvested. ^3 H-Thymidine incorporation as a measure of proliferation was determined by scintillation counting techniques. […]

CC(C)C[C@@H](C(=O)NN(Cc1ccccc1)S(C)(=O)=O)[C@H](C/C=C/c1ccccc1)C(=O)NO [C, (E)-2'-Benzyl-2(R)-[1(S)-(hydroxycarbamoyl)-4-phenyl-3-butenyl]-2'-(methanesulphonyl)-4-methylvalerohydrazide]
pIC50 [1]: 6.44

CC(C)C[C@@H](C(=O)NN(c1ccccc1)S(C)(=O)=O)[C@H](C/C=C/c1ccccc1)C(=O)NO [Compound A, (E)-2(R)-[1(S)-(Hydroxycarbamoyl)-4-phenyl-3-butenyl]-2'-(methanesulphonyl)-4-methyl-2'-phenylvalerohydrazide]
pIC50 [1]: 6.36 | pIC50 [2]: 6.68 | pIC50 [3]: 5.89

COc1ccc(N(NC(=O)[C@H](CC(C)C)[C@H](C/C=C/c2ccccc2)C(=O)NO)S(C)(=O)=O)cc1 [Compound B, 1(E)-2(R)-[1(S)-(Hydroxycarbamoyl)-4-phenyl-3-butenyl]-2'-(methanesulphonyl)-2'-(4-methoxyphenyl)-4-methylvalerohydrazide]
pIC50 [1]: 6.29 | pIC50 [2]: 6.59 | pIC50 [3]: 5.96

COC(=O)N(CC(C)C)NC(=O)[C@H](CC(C)C)[C@H](C/C=C/c1ccccc1)C(=O)NO [Compound I, Methyl (E)-3-[2(R)-[1(S)-(hydroxycarbamoyl)-4-phenyl-3-butenyl]-4-methylvaleryl]-2-isobutylcarbazate]
pIC50 [1]: 6.06

CC(C)C[C@@H](C(=O)NN(CC1CCCCC1)S(C)(=O)=O)[C@H](C/C=C/c1ccccc1)C(=O)NO [D, (E)-2'-(Cyclohexylmethyl)-2(R)-[1(S)-(hydroxycarbamoyl)-4-phenyl-3-butenyl]-2'-(methanesulphonyl)-4-methylvalerohydrazide]
pIC50 [1]: 6.39

CC(C)C[C@@H](C(=O)NN(CC(C)C)S(C)(=O)=O)[C@H](C/C=C/c1ccccc1)C(=O)NO [E, (E)-2(R)-[1(S)-(Hydroxycarbamoyl)-4-phenyl-3-butenyl]-2'-isobutyl-2'-(methanesulphonyl)-4-methylvalerohydrazide]
pIC50 [1]: 6.27

CC(C)C[C@@H](C(=O)NN1C(=O)CCCC1=O)[C@H](C/C=C/c1ccccc1)C(=O)NO [F, (E)-2(R)-[(1S)-(Hydroxycarbamoyl)-4-phenyl-3-butenyl]-4-methyl-N-(2,6-dioxopiperidino)valeramide]
pIC50 [1]: 5.82

CC[C@H](C)CN(NC(=O)[C@H](CC(C)C)[C@H](C/C=C/c1ccccc1)C(=O)NO)S(C)(=O)=O [G, (E)-2(R)-[1(S)-(hydroxycarbamoyl)-4-phenyl-3-butenyl]-2'-(methanesulphonyl)-4-methyl-2'-[2(S)-methylbutyl]valerohydrazide]
pIC50 [1]: 6.37

C=C(C)CN(NC(=O)[C@H](CC(C)C)[C@H](C/C=C/c1ccccc1)C(=O)NO)S(C)(=O)=O [H]
pIC50 [1]: 6.42

CC(C)CC(=O)N(CC(C)C)NC(=O)[C@H](CC(C)C)[C@H](C/C=C/c1ccccc1)C(=O)NO [J, (E)-2(R)-[(S)-(Hydroxycarbamoyl)-4-phenyl-3-butenyl]-2'-(isobutyl)-2'-(isopentanoyl)-4-methylvalerohydrazide]
pIC50 [1]: 6.03
